From patent publication US9807999B2, “Formulations” (priority 2010, dated 2017)

What was measured:
[1] = Solubility of active ingredients in solvents of the invention (equilibrated 4 weeks, supernatant analysed by gas chromatography)
Protocol: The resultant sample was mixed with a Whirlimixer™ and was then stored at 25° C. […] This procedure was repeated until the sample had equilibrated for 4 weeks following the final addition of either active ingredient or solvent.

[2] = Solubility of pesticides in propylene glycol benzoate compared with commonly used solvents; settings: comparison in words; 20° C.
[3] = solvent butylene glycol benzoate (compound 2), 25° C., equilibrated 4 weeks
[4] = solvent propylene glycol benzoate (compound 1), 25° C., equilibrated 4 weeks

Structure (SMILES) | Solubility in butylene glycol benzoate at 25° C. ([1]; 4 weeks) | Solubility in propylene glycol benzoate at 25° C. ([1]; 4 weeks) | Solubility in butylene glycol benzoate at 25° C. [1, 3] | Solubility in propylene glycol benzoate at 25° C. [1, 4] | Solubility in propylene glycol benzoate relative to a series of commonly used solvents [2]
CC(C1CC1)C(O)(Cn1cncn1)c1ccc(Cl)cc1 (centres unmarked) [Cyproconazole] | 6.9 % w/w | 4.5 % w/w |  |  | 
CO/C=C(/C(=O)OC)c1ccccc1Oc1cc(Oc2ccccc2C#N)ncn1 [Azoxystrobin] |  |  | 8.1 % w/w | 5.5 % w/w | higher
CC(C)C1C2CCC1c1c(NC(=O)c3cn(C)nc3C(F)F)cccc12 (centres unmarked) [Isopyrazam] |  |  | 12.4 % w/w | 12.7 % w/w | higher
N#Cc1c(Cl)c(Cl)c(Cl)c(C#N)c1Cl [Chlorothalonil] |  |  |  | 1.32 % w/w | lower
COCCOCc1nc(C(F)(F)F)ccc1C(=O)C1=C(O)C2CCC(C2)C1=O (centres unmarked) [4-Hydroxy-3-[2-(2-methoxyethoxymethyl)-6-trifluoromethylpyridine-3-carbonyl]-bicyclo[3.2.1]oct-3-en-2-one] |  |  |  | 27.4 % w/w | 
